# Peptide text beside a SMILES is read from it. * marks the point of attachment. Stearoyl = CCCCCCCCCCCCCCCCCC(=O)*; Palmitoyl = CCCCCCCCCCCCCCCC(=O)*
# Legend:
# Format in all cases: cell-based
# [1] = system: HIV-1 pseudovirus, primary Env ZM53M.PB12; settings: Env ZM53M.PB12, subtype C; mean ± SD of 3 assays in triplicate
# Procedure, shortened: (§1)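 Steps: transfect HEK293T to produce virus, harvesting supernatants at 48 h; titrate on TZM-bl; mix 100 TCID50 with inhibitor in threefold dilutions for 1 h at room temperature; infect TZM-bl cells, 10^4 per well; after 48 h at 37°C, measure luciferase.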
# [2] = system: HIV-1 pseudovirus, primary Env pREJO4541; settings: Env pREJO4541, subtype B; mean ± SD of 3 assays in triplicate
# Procedure, shortened: as §1
# [3] = system: HIV-1 pseudovirus, primary Env CNE8; settings: Env CNE8, subtype A/E; mean ± SD of 3 assays in triplicate
# Procedure, shortened: as §1
# [4] = system: HIV-1 pseudovirus, primary Env CH120.6; settings: Env CH120.6, subtype B/C; mean ± SD of 3 assays in triplicate
# Procedure, shortened: as §1
# HIV-1 WITO.c/2474 = settings: Table 2; WITO.c/2474, subtype B, R5; mean ± SD of 3 assays in triplicate
# Procedure, shortened: as §1
# [5] = system: HIV-1 pseudovirus, primary Env AE03; settings: Env AE03, subtype A/E; mean ± SD of 3 assays in triplicate
# Procedure, shortened: as §1
# [6] = system: HIV-1 pseudovirus, primary Env CAP210.2.00.E8; settings: Env CAP210.2.00.E8, subtype C; mean ± SD of 3 assays in triplicate
# Procedure, shortened: as §1
# [7] = system: HIV-1 pseudovirus, primary Env CH110; settings: Env CH110, subtype B/C; mean ± SD of 3 assays in triplicate
# Procedure, shortened: as §1
# HIV-1 THRO.c/2626 = settings: Table 2; THRO.c/2626, subtype B, R5; mean ± SD of 3 assays in triplicate
# Procedure, shortened: as §1
# [8] = system: HIV-1 pseudovirus, primary Env SHX335.24; settings: Env SHX335.24, subtype A/E; mean ± SD of 3 assays in triplicate
# Procedure, shortened: as §1
# [9] = system: HIV-1 pseudovirus, primary Env PVO; settings: subtype B, mean ± SD of 3 assays in triplicate
# Procedure, shortened: as §1
# HIV-1 RHPA.c/2635 = settings: Table 2; RHPA.c/2635, subtype B, R5; mean ± SD of 3 assays in triplicate
# Procedure, shortened: as §1
# [10] = system: HIV-1 pseudovirus, primary Env B04; settings: Env B04, subtype B'; mean ± SD of 3 assays in triplicate
# Procedure, shortened: as §1
# HIV-1 CH040.c/2625 = settings: Table 2; CH040.c/2625, subtype B, R5; mean ± SD of 3 assays in triplicate
# Procedure, shortened: as §1
# [11] = system: HIV-1 pseudovirus, primary Env R3A; settings: subtype B, mean ± SD of 3 assays in triplicate
# Procedure, shortened: as §1
# [12] = system: HIV-1 pseudovirus, primary Env GX11.13; settings: Env GX11.13, subtype A/E; mean ± SD of 3 assays in triplicate
# Procedure, shortened: as §1
# [13] = system: HIV-1 pseudovirus, primary Env B02; settings: Env B02, subtype B'; mean ± SD of 3 assays in triplicate
# Procedure, shortened: as §1
# [14] = system: HIV-1 pseudovirus, primary Env 398-F1_F6_20; settings: Env 398-F1_F6_20, subtype A; mean ± SD of 3 assays in triplicate
# Procedure, shortened: as §1
# [15] = system: HIV-1 pseudovirus, primary Env CH119.10; settings: Env CH119.10, subtype B/C; mean ± SD of 3 assays in triplicate
# Procedure, shortened: as §1
# [16] = system: HIV-1 pseudovirus, primary Env 92UG037.8; settings: Env 92UG037.8, subtype A; mean ± SD of 3 assays in triplicate
# Procedure, shortened: as §1
# [17] = system: HIV-1 pseudovirus, primary Env HIV_25710–2.43; settings: Env HIV_25710–2.43, subtype C; mean ± SD of 3 assays in triplicate
# Procedure, shortened: as §1
# [18] = system: HIV-1 pseudovirus, primary Env CE1176_A3; settings: Env CE1176_A3, subtype C; mean ± SD of 3 assays in triplicate
# Procedure, shortened: as §1
# HIV-1 SG3 = settings: Table 2; SG3, subtype B, X4; mean ± SD of 3 assays in triplicate
# Procedure, shortened: as §1
# [19] = system: HIV-1 pseudovirus, primary Env SF162; settings: Env SF162, subtype B; mean ± SD of 3 assays in triplicate
# Procedure, shortened: as §1
# HIV-1 89.6 = settings: Table 2; 89.6, subtype B, R5X4; mean ± SD of 3 assays in triplicate
# Procedure, shortened: as §1
# [20] = system: HIV-1 pseudovirus, primary Env BJOX002000.03.2; settings: Env BJOX002000.03.2, subtype B/C; mean ± SD of 3 assays in triplicate
# Procedure, shortened: as §1
# HIV-1 NL4-3 = settings: Table 2; NL4-3, subtype B, X4; mean ± SD of 3 assays in triplicate
# Procedure, shortened: as §1
Molecule,IC50 [1] [nM],IC50 [2] [nM],IC50 [3] [nM],IC50 [4] [nM],IC50 (HIV-1 WITO.c/2474) [pM],IC50 [5] [nM],IC50 [6] [nM],IC50 [7] [pM],IC50 (HIV-1 THRO.c/2626) [nM],IC50 [8] [nM],IC50 [9] [nM],IC50 (HIV-1 RHPA.c/2635) [pM],IC50 [10] [nM],IC50 (HIV-1 CH040.c/2625) [nM],IC50 [12] [nM],IC50 [13] [nM],IC50 [14] [pM],IC50 [15] [nM],IC50 [16] [nM],IC50 [17] [nM],further results
"enfuvirtide [Lipopeptide T-20, reference compound]",22.7 ± 0.943,55 ± 2.9,24.8 ± 1.88,48.1 ± 4.92,7810 ± 1620,12.38 ± 0.109,123 ± 4.77,31000 ± 2670,31.3 ± 2.39,40.6 ± 1.42,69.7 ± 0.698,6520 ± 1330,5.65 ± 0.366,30.9 ± 3.81,24.9 ± 2.21,10.4 ± 0.529,19400 ± 1710,11.5 ± 1.75,7.76 ± 1.04,13.7 ± 1.85,IC50 [11]: 6880 ± 1120 pM; IC50 [18]: 8400 ± 496 pM; IC50 (HIV-1 SG3): 2850 ± 227 pM; IC50 [19]: 17.6 ± 1.03 nM; IC50 (HIV-1 89.6): 15.4 ± 5.88 nM; IC50 [20]: 26.3 ± 2.77 nM
"CCCCCCCCCCCCCCCC(=O)NCCCC[C@H](NC(=O)[C@H](CCC(=O)O)NC(=O)[C@H](CC(C)C)NC(=O)[C@H](CCCCN)NC(=O)[C@H](CCCCN)NC(=O)[C@H](CC(C)C)NC(=O)[C@H](CCC(=O)O)NC(=O)[C@H](CCC(=O)O)NC(=O)[C@H](CCC(=O)O)NC(=O)[C@H](CC(N)=O)NC(=O)[C@H](CCCCN)NC(=O)[C@H](CCCCN)NC(=O)[C@H](CCC(N)=O)NC(=O)[C@H](CCC(N)=O)NC(=O)[C@H](CCC(=O)O)NC(=O)[C@H](CCC(=O)O)NC(=O)[C@H](C)NC(=O)[C@H](CCCCN)NC(=O)[C@H](CCCCN)NC(=O)[C@H](CC(C)C)NC(=O)[C@H](CC(C)C)NC(=O)[C@H](CCC(=O)O)NC(=O)[C@H](CCC(=O)O)NC(=O)[C@@H](NC(=O)[C@H](CCCCN)NC(=O)[C@H](CCC(N)=O)NC(=O)[C@H](CCC(=O)O)NC(=O)[C@H](Cc1c[nH]c2ccccc12)NC(C)=O)[C@@H](C)CC)C(N)=O [LP-52, reference compound] (Ac-WEQKIEELLKKAEEQQKKNEEELKKLEK(Palmitoyl)-NH2)",0.0269 ± 0.00304,0.00722 ± 0.00085,0.00497 ± 0.00131,0.0199 ± 0.00148,5.29 ± 1.61,0.0109 ± 0.00189,0.0393 ± 0.00357,7.98 ± 1.3,0.0271 ± 0.00461,0.0189 ± 0.00034,0.0297 ± 0.00783,9.42 ± 1.34,0.0134 ± 0.00094,0.0667 ± 0.0091,0.0087 ± 0.00088,0.0149 ± 0.00155,9.48 ± 1.74,0.0106 ± 0.00162,0.0282 ± 0.00827,0.0141 ± 0.00191,IC50 (HIV-1 NL4-3): 4.5 ± 2.49 pM; IC50 [11]: 9.22 ± 1.9 pM; IC50 [18]: 11.1 ± 1.52 pM; IC50 (HIV-1 SG3): 5.22 ± 1.89 pM; IC50 [19]: 0.0264 ± 0.00381 nM; IC50 (HIV-1 89.6): 0.0175 ± 0.00205 nM; IC50 [20]: 0.0368 ± 0.00293 nM
CCCCCCCCCCCCCCCCCC(=O)NCCCC[C@H](NC(=O)[C@H](CCC(=O)O)NC(=O)[C@H](CC(C)C)NC(=O)[C@H](CCCCN)NC(=O)[C@H](CCCCN)NC(=O)[C@H](CC(C)C)NC(=O)[C@H](CCC(=O)O)NC(=O)[C@H](CCC(=O)O)NC(=O)[C@H](CCC(=O)O)NC(=O)[C@H](CC(N)=O)NC(=O)[C@H](CCCCN)NC(=O)[C@H](CCCCN)NC(=O)[C@H](CCC(N)=O)NC(=O)[C@H](CCC(N)=O)NC(=O)[C@H](CCC(=O)O)NC(=O)[C@H](CCC(=O)O)NC(=O)[C@H](C)NC(=O)[C@H](CCCCN)NC(=O)[C@H](CCCCN)NC(=O)[C@H](CC(C)C)NC(=O)[C@H](CC(C)C)NC(=O)[C@H](CCC(=O)O)NC(=O)[C@H](CCC(=O)O)NC(=O)[C@@H](NC(C)=O)[C@@H](C)CC)C(N)=O [LP-90] (Ac-IEELLKKAEEQQKKNEEELKKLEK(Stearoyl)-NH2),0.00881 ± 0.00046,0.0159 ± 0.00313,0.0225 ± 0.0026,0.0254 ± 0.00162,4.06 ± 1.67,0.0141 ± 0.00417,0.0291 ± 0.00133,7.85 ± 1.22,0.0146 ± 0.00224,0.00301 ± 0.0002,0.0226 ± 0.0047,5.36 ± 1.66,0.0175 ± 0.00772,0.0502 ± 0.0138,0.0248 ± 0.00159,0.0155 ± 0.00368,6.32 ± 0.46,0.0108 ± 0.00236,0.00842 ± 0.00152,0.016 ± 0.00293,IC50 (HIV-1 NL4-3): 76.8 ± 19 pM; IC50 [18]: 8.77 ± 1.95 pM; IC50 (HIV-1 SG3): 1.67 ± 0.61 pM; IC50 [19]: 0.00482 ± 0.00091 nM; IC50 (HIV-1 89.6): 0.0574 ± 0.0109 nM
CCCCCCCCCCCCCCCCCC(=O)NCCCC[C@H](NC(=O)[C@H](CCC(=O)O)NC(=O)[C@H](CC(C)C)NC(=O)[C@H](CCCCN)NC(=O)[C@H](CCCCN)NC(=O)[C@H](CC(C)C)NC(=O)[C@H](CCC(=O)O)NC(=O)[C@H](CCC(=O)O)NC(=O)[C@H](CCC(=O)O)NC(=O)[C@H](CC(N)=O)NC(=O)[C@H](CCCCN)NC(=O)[C@H](CCCCN)NC(=O)[C@H](CCC(N)=O)NC(=O)[C@H](CCC(N)=O)NC(=O)[C@H](CCC(=O)O)NC(=O)[C@H](CCC(=O)O)NC(=O)[C@H](C)NC(=O)[C@H](CCCCN)NC(=O)[C@H](CCCCN)NC(=O)[C@H](CC(C)C)NC(=O)[C@H](CC(C)C)NC(=O)[C@H](CCC(=O)O)NC(=O)[C@H](CCC(=O)O)NC(=O)[C@@H](NC(=O)[C@H](CCCCN)NC(=O)[C@H](CCC(N)=O)NC(=O)[C@H](CCC(=O)O)NC(=O)[C@H](Cc1c[nH]c2ccccc12)NC(C)=O)[C@@H](C)CC)C(N)=O [LP-80] (Ac-WEQKIEELLKKAEEQQKKNEEELKKLEK(Stearoyl)-NH2),0.00862 ± 0.00074,0.0014 ± 0.00061,0.00356 ± 0.0007,0.0106 ± 0.00102,3.38 ± 1.09,0.00344 ± 0.00083,0.0106 ± 0.00256,3.3 ± 0.29,0.0149 ± 0.00193,0.00283 ± 0.00066,0.013 ± 0.00167,4.81 ± 1.98,0.00381 ± 0.00108,0.0227 ± 0.00555,0.00485 ± 0.00099,0.0089 ± 0.00103,1.49 ± 0.26,0.0047 ± 0.00035,0.00372 ± 0.001,0.0032 ± 0.00068,IC50 (HIV-1 NL4-3): 2.45 ± 0.51 pM; IC50 [11]: 6.34 ± 0.65 pM; IC50 [18]: 2.94 ± 0.19 pM; IC50 (HIV-1 SG3): 1.8 ± 0.42 pM; IC50 [19]: 0.00312 ± 0.00037 nM; IC50 (HIV-1 89.6): 0.00527 ± 0.0003 nM; IC50 [20]: 0.00848 ± 8e-05 nM
